The source made the active and inactive calls. The rule behind the calls is not given here.
Key:
[1] = Drug distribution in Sprague-Dawley rat kidney at 1 mg/kg,iv measured for 0.5 to 2 hrs by HPLC-MS/MS analysis; format: ADME, organism-based; conditions: in vivo, time 0.5-2 hrs
[2] = Drug distribution in Sprague-Dawley rat heart at 1 mg/kg,iv measured for 0.5 to 2 hrs by HPLC-MS/MS analysis; format: ADME, organism-based; conditions: in vivo, time 0.5-2 hrs
[3] = Acute toxicity in Kunming mouse model assessed as change in body weight at 2000 mg/kg,IG administration for 7 days; format: organism-based; conditions: in vivo, po, 168 h, time 7 day
[4] = Subacute toxicity in C57BL/6 mouse assessed as heart histological changes at 100 mg/kg,ip administrated for 14 days; format: organism-based; conditions: in vivo, 336 h, time 14 day
[5] = Acute toxicity in Kunming mouse model assessed as anorexia at 1000 mg/kg,IG administration for 7 days; format: organism-based; conditions: in vivo, po, 168 h, time 7 day
[6] = Acute toxicity in Kunming mouse model assessed as behavioral abnormalities at 2000 mg/kg,IG administration for 7 days; format: organism-based; conditions: in vivo, po, 168 h, time 7 day
[7] = Subacute toxicity in C57BL/6 mouse assessed as change in colon weight at 100 mg/kg,ip administrated for 14 days; format: organism-based; conditions: in vivo, 336 h, time 14 day
Mus musculus [8] = test: Anti-inflammatory activity in C57BL/6 mouse assessed as inhibition of LPS-induced IL-1beta secretion at 10 mg/kg,ip administrated for 1 hr followed by LPS stimulation for 2.5 hrs by ELISA analysis; format: functional, organism-based
[9] = Subacute toxicity in C57BL/6 mouse assessed as liver histological changes at 10 mg/kg,ip administrated for 14 days; format: organism-based; conditions: in vivo, 336 h, time 14 day
[10] = Subacute toxicity in C57BL/6 mouse assessed as colon histological changes at 10 mg/kg,ip administrated for 14 days; format: organism-based; conditions: in vivo, 336 h, time 14 day
[11] = target: NLR family CARD domain-containing protein 4 (Mus musculus) (UniProt Q3UP24); test: Inhibition of NLRC4 inflammasome in mouse J774.A1 cells assessed as inhibition of LPS/flagellin-induced IL-1 beta secretion at 10 uM pretreated with LPS and compound for 1 hr followed by flagellin addition measured after 6 hrs by ELISA; format: cell-based; conditions: time 7.0 hrs
NLR family CARD domain-containing protein 4 (Mus musculus), sequence (Q3UP24 whole entry, the tested form may be a part): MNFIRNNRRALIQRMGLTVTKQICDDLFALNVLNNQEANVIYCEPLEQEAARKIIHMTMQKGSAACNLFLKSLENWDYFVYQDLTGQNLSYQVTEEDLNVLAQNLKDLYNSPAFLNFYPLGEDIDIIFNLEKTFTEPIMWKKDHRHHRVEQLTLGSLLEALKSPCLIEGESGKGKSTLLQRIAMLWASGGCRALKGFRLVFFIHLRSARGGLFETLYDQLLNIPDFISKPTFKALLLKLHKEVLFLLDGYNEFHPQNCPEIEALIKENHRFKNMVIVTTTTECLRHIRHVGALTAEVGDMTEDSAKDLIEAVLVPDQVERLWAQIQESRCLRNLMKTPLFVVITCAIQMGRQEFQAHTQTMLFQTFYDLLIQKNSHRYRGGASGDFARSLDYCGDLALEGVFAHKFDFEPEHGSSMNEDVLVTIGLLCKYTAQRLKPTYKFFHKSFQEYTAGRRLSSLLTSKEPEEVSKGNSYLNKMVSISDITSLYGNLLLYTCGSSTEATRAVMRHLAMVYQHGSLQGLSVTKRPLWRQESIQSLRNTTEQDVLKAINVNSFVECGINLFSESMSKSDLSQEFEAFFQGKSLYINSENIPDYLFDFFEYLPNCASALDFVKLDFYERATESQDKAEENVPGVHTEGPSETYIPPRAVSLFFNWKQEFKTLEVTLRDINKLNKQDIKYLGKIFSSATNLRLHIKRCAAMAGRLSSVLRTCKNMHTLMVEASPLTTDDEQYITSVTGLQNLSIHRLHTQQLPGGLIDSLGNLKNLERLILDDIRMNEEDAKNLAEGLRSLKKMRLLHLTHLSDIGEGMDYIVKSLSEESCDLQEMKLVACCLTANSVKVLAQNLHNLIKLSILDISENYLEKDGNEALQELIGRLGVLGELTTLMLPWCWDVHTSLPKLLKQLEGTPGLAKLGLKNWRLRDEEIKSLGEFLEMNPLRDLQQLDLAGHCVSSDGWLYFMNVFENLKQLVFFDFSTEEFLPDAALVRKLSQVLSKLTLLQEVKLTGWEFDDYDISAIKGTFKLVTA

[12] = Drug distribution in Sprague-Dawley rat brain at 1 mg/kg,iv measured for 0.5 to 2 hrs by HPLC-MS/MS analysis; format: ADME, organism-based; conditions: in vivo, time 0.5-2 hrs
[13] = Subacute toxicity in C57BL/6 mouse assessed as change in liver weight at 10 mg/kg,ip administrated for 14 days; format: organism-based; conditions: in vivo, 336 h, time 14 day
[14] = Acute toxicity in Kunming mouse model assessed as behavioral abnormalities at 1000 mg/kg,IG administration for 7 days; format: organism-based; conditions: in vivo, po, 168 h, time 7 day
[15] = Drug distribution in Sprague-Dawley rat liver at 1 mg/kg,iv measured for 0.5 to 2 hrs by HPLC-MS/MS analysis; format: ADME, organism-based; conditions: in vivo, time 0.5-2 hrs
[16] = Subacute toxicity in C57BL/6 mouse assessed as spleen histological changes at 100 mg/kg,ip administrated for 14 days; format: organism-based; conditions: in vivo, 336 h, time 14 day
[17] = Acute toxicity in Kunming mouse model assessed as lethal dose at IG administration for 7 days; conditions: in vivo, po, time 7 day
Mus musculus [18] = test: Anti-inflammatory activity in DSS-induced ulcerative colitis C57BL/6 mouse model assessed as decrease in caspase-1 expression in colon at 10 mg/kg,ip administrated for 9 days by immunohistochemistry analysis; format: functional, organism-based; conditions: time 9.0 day
Mus musculus [19] = test: Anti-inflammatory activity in C57BL/6 mouse assessed as inhibition of LPS-induced TNFF-alpha secretion at 10 mg/kg,ip administrated for 1 hr followed by LPS stimulation for 2.5 hrs by ELISA analysis; format: functional, organism-based
[20] = Drug distribution in Sprague-Dawley rat spleen at 1 mg/kg,iv measured for 0.5 to 2 hrs by HPLC-MS/MS analysis; format: ADME, organism-based; conditions: in vivo, time 0.5-2 hrs
[21] = Acute toxicity in Kunming mouse model assessed as ruffled fur at 1000 mg/kg,IG administration for 7 days; format: organism-based; conditions: in vivo, po, 168 h, time 7 day
[22] = Subacute toxicity in C57BL/6 mouse assessed as colon histological changes at 100 mg/kg,ip administrated for 14 days; format: organism-based; conditions: in vivo, 336 h, time 14 day
[23] = Subacute toxicity in C57BL/6 mouse assessed as change in colon weight at 10 mg/kg,ip administrated for 14 days; format: organism-based; conditions: in vivo, 336 h, time 14 day
Mus musculus [24] = test: Anti-inflammatory activity in DSS-induced ulcerative colitis C57BL/6 mouse model assessed as decrease in IL-18 expression in colon at 10 mg/kg,ip administrated for 9 days by immunohistochemistry analysis; format: functional, organism-based; conditions: time 9.0 day
[25] = Subacute toxicity in C57BL/6 mouse assessed as change in lung weight at 10 mg/kg,ip administrated for 14 days; format: organism-based; conditions: in vivo, 336 h, time 14 day
[26] = Acute toxicity in Kunming mouse model assessed as anorexia at 2000 mg/kg,IG administration for 7 days; format: organism-based; conditions: in vivo, po, 168 h, time 7 day
Mus musculus [27] = test: Anti-inflammatory activity in DSS-induced ulcerative colitis C57BL/6 mouse model assessed as decrease in ASC expression in colon at 10 mg/kg,ip administrated for 9 days by immunohistochemistry analysis; format: functional, organism-based; conditions: time 9.0 day
Mus musculus [28] = test: Anti-inflammatory activity in DSS-induced ulcerative colitis C57BL/6 mouse model assessed as decrease in NLRP3 protein expression in colon at 10 mg/kg,ip administrated for 9 days by Western blotting analysis; format: functional, organism-based; conditions: time 9.0 day
[29] = Subacute toxicity in C57BL/6 mouse assessed as change in heart weight at 10 mg/kg,ip administrated for 14 days; format: organism-based; conditions: in vivo, 336 h, time 14 day
[30] = Subacute toxicity in C57BL/6 mouse assessed as change in spleen weight at 100 mg/kg,ip administrated for 14 days; format: organism-based; conditions: in vivo, 336 h, time 14 day
Mus musculus [31] = test: Anti-inflammatory activity in DSS-induced ulcerative colitis C57BL/6 mouse model assessed as decrease in NLRP3 expression in colon at 10 mg/kg,ip administrated for 9 days by immunohistochemistry analysis; format: functional, organism-based; conditions: time 9.0 day
J774.A1 = test: Inhibition of NF-kappaB pathway in mouse J774.A1 cells assessed as inhibition of LPS-induced IL-6 secretion at 0.1 to 30 uM pretreated for 1hr followed by LPS addition for 6 hrs by ELISA; format: cell-based; conditions: dose 0.1-30 µM, time 7.0 hrs
[32] = AUC (0-infinity) in Sprague-Dawley rat at 1 mg/kg,iv measured after 24 hrs by HPLC-MS/MS analysis; format: ADME, organism-based; set-up: time 24 hrs, dose 1 mg/kg, route iv; conditions: in vivo
[33] = Subacute toxicity in C57BL/6 mouse assessed as spleen histological changes at 10 mg/kg,ip administrated for 14 days; format: organism-based; conditions: in vivo, 336 h, time 14 day
[34] = Acute toxicity in Kunming mouse model assessed as clonic convulsion at 2000 mg/kg,IG administration for 7 days; format: organism-based; conditions: in vivo, po, 168 h, time 7 day
[35] = Subacute toxicity in C57BL/6 mouse assessed as change in lung weight at 100 mg/kg,ip administrated for 14 days; format: organism-based; conditions: in vivo, 336 h, time 14 day
Mus musculus [36] = test: Anti-inflammatory activity in DSS-induced ulcerative colitis C57BL/6 mouse model assessed as reduction in crypt necrosis in colon at 10 mg/kg,ip administrated for 9 days by Hematoxylin-eosin staining based microscopic analysis; format: functional, organism-based; conditions: time 9.0 day
Mus musculus [37] = test: Anti-inflammatory activity in DSS-induced ulcerative colitis C57BL/6 mouse model assessed as decrease in IL-1beta p17 protein expression in colon at 10 mg/kg,ip administrated for 9 days by Western blotting analysis; format: functional, organism-based; conditions: time 9.0 day
[38] = Subacute toxicity in C57BL/6 mouse assessed as liver histological changes at 100 mg/kg,ip administrated for 14 days; format: organism-based; conditions: in vivo, 336 h, time 14 day

In the case of CCCNS(=O)(=O)c1ccc2c(c1)CC(N(Cc1cc(Cl)ccc1OCCOC)C(=O)c1cc3ccccc3o1)C2 (racemic), the Drug uptake [1] is reported as “Active”, the Drug uptake [2] is reported as “Active” and the Activity [3] is reported as “Non-Toxic”. For the same compound, the Activity [4] was “Non-Toxic”, the Activity [5] was “Non-Toxic” and the Activity [6] was “Non-Toxic”. The Activity [7] was “Non-Toxic”, the Activity (Mus musculus [8]) was “Active” and the Activity [9] was “Non-Toxic”. The Activity [10] was “Non-Toxic”, the inhibition [11] was “inactive” and the Drug uptake [12] was “Active”. For the same compound, the Activity [13] was “Non-Toxic”, the Activity [14] was “Non-Toxic” and the Drug uptake [15] was “Active”. The Activity [16] was “Non-Toxic”, the LD50 at 168 h [17] was 2000 mg/kg and the Activity (Mus musculus [18]) was “Active”. For the same compound, the Activity (Mus musculus [19]) was “Active”, the Drug uptake [20] was “Active” and the Activity [21] was “Non-Toxic”. For the same compound, the Activity [22] was “Non-Toxic”, the Activity [23] was “Non-Toxic” and the Activity (Mus musculus [24]) was “Active”. The Activity [25] was “Non-Toxic”, the Activity [26] was “Non-Toxic” and the Activity (Mus musculus [27]) was “Active”. The Activity (Mus musculus [28]) was “Active”, the Activity [29] was “Non-Toxic” and the Activity [30] was “Non-Toxic”. For the same compound, the Activity (Mus musculus [31]) was “Active”, the inhibition (J774.A1) was “inactive” and the AUC(0-inf) [32] was 213 ng·h/mL. For the same compound, the Activity [33] was “Non-Toxic”, the Activity [34] was “Non-Toxic” and the Activity [35] was “Non-Toxic”. For the same compound, the Activity (Mus musculus [36]) was “Active”, the Activity (Mus musculus [37]) was “Active” and the Activity [38] was “Non-Toxic”.
